Assay results taken from US8044089B2, “3-3-di-substituted-oxindoles as inhibitors of translation initiation” (President and Fellows of Harvard College, priority 2004, dated 2011).

What was measured:
[1] = system: intracellular Ca^2+ stores; assay: Ca2+ release from intracellular stores (FURA-2AM loaded cells); type: cell-based; parameters: key to Ca^2+ (Ca^2+ release from intracellular stores): a “+” denotes release; a “+/−” denotes inconclusive
Description: (§1) As a non-limiting example, compounds 1272 and 1273 (set forth in Table 1) were synthesized starting from 3-bromoaniline, which upon condensation with hydroxylamine and chloral hydrate followed by concentrated sulfuric acid yielded an inseparable regioisomeric mixture of 4- and 6-bromo isatins. The addition of the two phenyl groups to the three position of the oxindole allowed easy chromatographic separation of the 4- and 6-bromo-3,3-diphenyloxindoles 1272 and 1273. Table 1 sets forth biological data for diaryloxindole compounds including, but not limited to 1272 and 1273. For Tables 1-14, Ca^2+ refers to Ca^2+ release from intracellular stores where a “+” denotes release and a “+/−” denotes inconclusive; eIF2α-P refers to phosphorylation of eIF2α measured by Western blot; SRB refers to the inhibitory concentration to reduce cell growth by 50% (IC50) for growth inhibition of A549 lung cancer cells; and n.d. is not determined.
(§2) Without intending to be bound by theory, the mechanism of action of translation initiation inhibitors is set forth in FIG. 1, and includes the depletion (complete or partial depletion) of intracellular calcium (Ca^2+) stores and phosphorylation of eIF2α. Compounds synthesized using the approaches described herein were screened for their ability to partially deplete intracellular Ca^2+ stores using FURA-2AM loaded cells (Benzaquen et al. (1995) Nature Medicine, 1:534, incorporated herein by reference in its entirety for all purposes). A limited subset of compounds were further screened for their ability to deplete endoplasmic reticulum (ER) Ca^2+. The Ca^2+ content of the ER was monitored using ER-targeted, Ca^2+ sensitive, recombinant proteins. These recombinant proteins emitted light by fluorescent resonance energy transfer (FRET) as a function of the Ca^2+ content of the medium. Such assays are previously described (Miyawaki, A.; Mizuno, H.; Llopis, J.; Tsien, R. Y.; Jalink, K. Cameleons as cytosolic and intra-organellar calcium probes, Oxford University Press: Oxford, London, 2001; pp 3-16, incorporated herein by reference in its entirety for all purposes). Compounds that depleted Ca^2+ were further evaluated for their ability to phosphorylate eIF2α. eIF2α phosphorylation was measured by Western blot analysis using the phospho-specific anti-eIF2α antibody, as previously described (Aktas et al. (1998) Proc. Natl. Acad. Sci. USA, 95:8280, incorporated herein by reference in its entirety for all purposes).

A549 lung cancer cells = assay: SRB growth inhibition of A549 lung cancer cells; type: cell-based, human; conditions: for IC50: A549 lung cancer cells, unit inferred, read-out: SRB (IC50 for growth inhibition of A549 lung cancer cells)
Description: As a non-limiting example, compounds 1272 and 1273 (set forth in Table 1) were synthesized starting from 3-bromoaniline, which upon condensation with hydroxylamine and chloral hydrate followed by concentrated sulfuric acid yielded an inseparable regioisomeric mixture of 4- and 6-bromo isatins. The addition of the two phenyl groups to the three position of the oxindole allowed easy chromatographic separation of the 4- and 6-bromo-3,3-diphenyloxindoles 1272 and 1273. Table 1 sets forth biological data for diaryloxindole compounds including, but not limited to 1272 and 1273. For Tables 1-14, Ca^2+ refers to Ca^2+ release from intracellular stores where a “+” denotes release and a “+/−” denotes inconclusive; eIF2α-P refers to phosphorylation of eIF2α measured by Western blot; SRB refers to the inhibitory concentration to reduce cell growth by 50% (IC50) for growth inhibition of A549 lung cancer cells; and n.d. is not determined. […]

eIF2α = eIF2α phosphorylation measured by Western blot; type: cell-based; conditions: for eIF2α-P (phosphorylation of eIF2α measured by Western blot): unit or reference not given
Description: as §1, §2

Row | SMILES | Ca^2+ (Ca^2+ release from intracellular stores) [1] | IC50 (A549 lung cancer cells) [µM] | eIF2α-P (phosphorylation of eIF2α measured by Western blot) (eIF2α) | eIF2α phosphorylation (in words) (eIF2α) | growth inhibition of cancer cells (in words) (A549 lung cancer cells; A549)
1 | O=C1Nc2ccccc2C1(c1ccccc1)c1ccc(O)c(C(F)(F)F)c1 (stereo not drawn) [Compound 1242] | + | 14 | 2.72 |  | 
2 | CCCCCCCc1ccc(O)c(C2(c3ccccc3)C(=O)Nc3ccccc32)c1 (stereo not drawn) [Compound 1279] | +/− | 3 | 3.49 |  | 
3 | O=C1Nc2ccc([N+](=O)[O-])cc2C1(c1ccccc1)c1ccccc1 [Compound 1265] | +/− | 14 | 2.35 |  | 
4 | CCCCCCCCCc1ccc(O)c(C2(c3ccccc3)C(=O)Nc3ccccc32)c1 (stereo not drawn) [Compound 1280] | +/− | 3 | 3.89 |  | 
5 | CCc1ccc2c(c1)NC(=O)C2(c1ccccc1)c1ccccc1 [Compound 1271] | + | 4 | 1.58 |  | 
6 | Nc1ccc(CCNC(=O)c2ccc(Cl)c3c2NC(=O)C3(c2ccccc2)c2ccccc2)cc1 [Compound 1355] | +/− | 5 | 3.80 |  | 
7 | CCc1ccc2c(c1)NC(=O)C2(c1ccccc1)c1cc(C(C)(C)C)ccc1O (stereo not drawn) [Compound 1258] | + | 4 | 3.13 |  | 
8 | O=C1Nc2ccccc2C1(c1ccccc1)c1cc(C2CCCCC2)ccc1O (stereo not drawn) [Compound 1290] | +/− | 3 | 8.60 |  | 
9 | Cc1ccc(O)c(C2(c3ccccc3)C(=O)Nc3ccccc32)c1 (stereo not drawn) [Compound 1278] | + | 8 | 3.33 |  | 
10 | O=C1Nc2ccccc2C1(c1ccc(Cl)cc1)c1ccccc1O (stereo not drawn) [Compound 1208] | + | 10 | 1.42 |  | 
11 | Cc1cc(C2(c3ccccc3)C(=O)Nc3ccccc32)c(NC(=O)c2ccc(C(C)(C)C)cc2)cc1O (stereo not drawn) [Compound 1493] |  | 3 | 2.06 |  | 
12 | COc1ccc(C2(c3ccccc3)C(=O)Nc3ccccc32)cc1 (stereo not drawn) [Compound 1294] |  | 10 | 1.52 |  | 
13 | O=C1Nc2ccc(Br)cc2C1(c1ccccc1)c1ccccc1 [Compound 1205] | + | 9 | 2.05 | none of the compounds exhibited an increase in eIF2α phosphorylation relative to compound 1392 | 
14 | CC(=O)Nc1ccc(S(=O)(=O)Nc2cc(O)c(C)cc2C2(c3ccccc3)C(=O)Nc3ccccc32)cc1 (stereo not drawn) [Compound 1512] |  | 4 | 1.01 |  | 
15 | Cc1cc(C2(c3ccccc3)C(=O)Nc3ccccc32)c(NS(=O)(=O)c2ccc(Oc3ccccc3)cc2)cc1O (stereo not drawn) [Compound 1594] |  | 5 | 3.73 |  | 
16 | COC(=O)C(Cc1ccc(O)c(C2(c3ccccc3)C(=O)Nc3ccccc32)c1)NC(=O)OCC1c2ccccc2-c2ccccc21 (stereo not drawn) [Compound 1172] | + |  | 1.94 |  | 
17 | CC(C)(C)c1ccc(OC(=O)CCCC(=O)O)c(C2(c3ccccc3)C(=O)Nc3ccccc32)c1 (stereo not drawn) [Compound 1396] |  | 7 | 1.72 |  | 
18 | CC(C)(C)OC(=O)NCCOc1ccc(C(C)(C)C)cc1C1(c2ccccc2)C(=O)Nc2ccccc21 (stereo not drawn) [Compound 1329] |  | 3 | 0.89 |  | 
19 | O=C1Nc2c(I)cccc2C1(c1ccccc1)c1ccccc1 [Compound 1267] |  |  | 1.88 |  | 
20 | Cc1cc(C2(c3ccccc3)C(=O)Nc3ccccc32)c(NC(=O)OCC2c3ccccc3-c3ccccc32)cc1O (stereo not drawn) [Compound 1395] |  | 3 | 1.84 |  | 

Row | SMILES | Ca^2+ (Ca^2+ release from intracellular stores) [1] | IC50 (A549 lung cancer cells) [µM] | eIF2α-P (phosphorylation of eIF2α measured by Western blot) (eIF2α) | eIF2α phosphorylation (in words) (eIF2α) | growth inhibition of cancer cells (in words) (A549 lung cancer cells; A549)
21 | O=C1Nc2ccc(S(=O)(=O)O)cc2C1(c1ccccc1)c1ccccc1 [Compound 1266] |  | 9 | 1.62 |  | 
22 | C=CCCCOc1ccc(C2(c3cc(C(C)(C)C)ccc3O)C(=O)Nc3ccccc32)cc1 (stereo not drawn) [Compound 1218] |  | 7 | 1.36 |  | 
23 | [N-]=[N+]=NCCCCOc1ccc(O)c(C2(c3ccccc3)C(=O)Nc3ccccc32)c1 (stereo not drawn) [Compound 1219] | + | 5 |  |  | 
24 | CCCCCCCCc1ccc(O)c(C2(c3ccccc3)C(=O)Nc3ccccc32)c1 (stereo not drawn) [Compound 1284] |  | 3 | 2.91 |  | 
25 | CC(C)(C)c1ccc(O)c(C2(c3ccccc3)C(=O)Nc3cc(Cl)ccc32)c1 (stereo not drawn) [Compound 1429] | + | 3 |  |  | 
26 | CCc1cccc2c1NC(=O)C2(c1ccccc1)c1ccccc1 [Compound 1268] |  | 14 | 2.19 |  | 
27 | O=C(O)c1cccc2c1NC(=O)C2(c1ccccc1)c1ccccc1 [Compound 1353] |  | > 20 | 1.54 |  | 
28 | CC(C)(C)c1ccc(O)c(C2(c3c(F)c(F)c(F)c(F)c3F)C(=O)Nc3ccccc32)c1 (stereo not drawn) [Compound 1328] | + | 3 |  |  | 
29 | CC(C)(C)c1ccc(S(=O)(=O)Nc2ccc(O)c(C3(c4ccccc4)C(=O)Nc4ccccc43)c2)cc1 (stereo not drawn) [Compound 1638] | + | 3 |  |  | 
30 | O=C1Nc2ccccc2C1(c1ccc(O)cc1)c1ccc(-c2ccccc2)cc1 (stereo not drawn) [Compound 1261] | + | 10 |  |  | 
31 | CN(C)c1ccc(C2(c3ccc(O)cc3)C(=O)Nc3ccccc32)cc1 (stereo not drawn) [Compound 1262] | +/− | 10 |  |  | 
32 | CC(C)(C)c1cccc(C2(c3ccc(O)cc3)C(=O)Nc3ccccc32)c1 (stereo not drawn) [Compound 1232] | + | 4 |  |  | 
33 | C=CCCCOc1ccc(O)c(C2(c3ccccc3)C(=O)Nc3ccccc32)c1 (stereo not drawn) [Compound 1202] | + | 6 |  |  | 
34 | CC(C)(C)c1ccc(O)c(C2(c3ccccc3)C(=O)Nc3ccc(N=[N+]=[N-])cc32)c1 (stereo not drawn) [Compound 1348] | + | 3 |  |  | 
35 | O=C1Nc2c(CO)ccc(Cl)c2C1(c1ccccc1)c1ccccc1 [Compound 1398] |  | 14 | 1.48 | reduced eIF2α phosphorylation relative to compound 1392 | reduced potency of tumor cell growth inhibition
36 | CCCCCCCCCCCCC1(c2cc(C(C)(C)C)ccc2O)C(=O)Nc2ccccc21 (stereo not drawn) [Compound 1274] |  | 3 | 0.91 |  | 
37 | CN(C)CCCCOc1cccc(C2(c3ccccc3)C(=O)Nc3ccccc32)c1O (stereo not drawn) [Compound 1199] | + | > 20 |  |  | 
38 | CC(C)(C)c1ccc(O)c(C2(c3ccccc3)C(=O)Nc3ccc(F)cc32)c1 (stereo not drawn) [Compound 1312] | + | 4 |  |  | 
39 | CC(C)(C)c1ccc(O)c(C2(C3CCCCC3)C(=O)Nc3ccccc32)c1 (stereo not drawn) [Compound 1277] |  | 10 | 1.08 |  | 
40 | Cc1cc(C2(c3ccccc3)C(=O)Nc3ccccc32)c(NS(=O)(=O)c2ccc(-c3ccccc3)cc2)cc1O (stereo not drawn) [Compound 1593] |  | 4 | 2.22 |  | 
